What was measured:
[1] = target: T1, CDK7/Cyclin H/MAT-1 complex (Homo sapiens, UniProt P50613); test: Absorbance kinetic assay (20 nM CDK7/Cyclin H/MAT-1 complex); type: biochemical; conditions: for IC50: read-out: CDK7 (20 nM) pIC50 (converted)
T1 construct: Human CDK7 (amino acids 1-346); His6 (N); TEV protease cleavage site (N); made in house; host or cells: baculovirus-SF9 insect cells
Description: Human CDK7 (amino acids 1-346) containing an N-terminal His6-tag followed by a tobacco etch virus (TEV) protease cleavage site, human MAT1 (amino acids 1-309) and human cyclin H (amino acids 1-323) were co-expressed in the baculovirus-SF9 insect cell expression system to generate a trimeric complex. Cell pellets were collected 72 h post-infection and were resuspended by Dounce homogenization in 20 mM Hepes-NaOH (pH 8.0), 300 mM NaCl, 10% glycerol, 2 mM dithiothreitol DTT), and 20 mM Imidazole supplemented with cOmplete™ Protease Inhibitor Cocktail (Roche) and 25 U/mL Benzonase® Nuclease HC according to the manufacturer's instructions. Cells were lysed by passing through a Microfluidics M110Y Microfluidizer 3 times at 600 kPa followed by centrifugation at 38,000×g at 4° C. for 1 hour. The supernatant was loaded onto a pre-equilibrated HisTrap HP column and eluted in 20 mM Hepes-NaOH (pH 8.0), 50 mM NaCl, 10% glycerol, 2 mM DTT, and 400 mM Imidazole. The eluate was further purified by gel filtration on a Superdex S200 16/60 column and eluted with 20 mM Hepes-NaOH (pH 7.5), 50 mM NaCl, 10% Glycerol, 2 mM DTT. Fractions containing a trimeric complex of CDK7, cyclin H, and MAT1 in a 1:1:1 ratio were pooled and concentrated to 3 mg/mL in a 10 kDa MWCO concentrator, and diluted to a final concentration of 1.6 mg/mL in 11.1 mM Hepes-NaOH (pH 8.0), 27.8 mM NaCl, 1.1 mM DTT and 50% glycerol. […]
Absorbance Kinetic Assay (20 nM CDK7/Cyclin H/MAT-1 Complex)
CDK7 complex catalyzes the ATP-dependent phosphorylation of a peptide substrate CDK7/9-tide that is derived from RNA Pol II to produce phosphorylated peptide and ADP. The kinase reaction product ADP was converted to lactate and NAD^+ in the presence of phosphoenol pyruvate (PEP), NADH and coupling enzymes lactate dehydrogenase (LDH) and pyruvate kinase (PK). CDK7 complex catalytic activity was measured by following the absorbance intensity continuously at 340 nm that corresponds with the depletion of NADH.
Absorbance at 340 nm was followed kinetically at an interval of 2 minutes for 8 hours.
The assay was carried out with 100 μl reaction volume per well in a 384-well plate that was pre-spotted nanoliter volume of compounds by LabCyte Echo 555. Compound dilution plates were made by 2-fold (could vary upon necessity) dilution in DMSO for 11 concentrations plus a DMSO control of uninhibited reaction. 2× substrate and coupling reagent mixture was added to the assay plate followed by an addition of an equal volume of 40 nM CDK7/Cyclin H/MAT-1 complex. After mixing, assay plates were spun at 2000 rpm for 3 minutes and then transferred to the plate reader for data collection.
For reversible inhibitors, the absorbance reaction progress curves were linear. The steady-state rate was derived from the slope of the linear curves. The following equation is applied to determine percent inhibition.
[formula] • νo=max rate (uninhibited rate) • νi=inhibited rate
The IC50 value is calculated by the following equation:
(§1) [formula] where νo is the rate in the absence of inhibitor, νmin is the rate at highest inhibitor concentration, and h is the Hill coefficient. Flint Assay (5 nM CDK7/Cyclin H/MAT-1 Complex)

[2] = target: T1, CDK7/Cyclin H/MAT-1 complex; test: Flint assay, end-point fluorescence (5 nM CDK7/Cyclin H/MAT-1 complex); type: biochemical; conditions: read-out: CDK7 (5 nM) pIC50 (converted)
Description: Human CDK7 (amino acids 1-346) containing an N-terminal His6-tag followed by a tobacco etch virus (TEV) protease cleavage site, human MAT1 (amino acids 1-309) and human cyclin H (amino acids 1-323) were co-expressed in the baculovirus-SF9 insect cell expression system to generate a trimeric complex. Cell pellets were collected 72 h post-infection and were resuspended by Dounce homogenization in 20 mM Hepes-NaOH (pH 8.0), 300 mM NaCl, 10% glycerol, 2 mM dithiothreitol DTT), and 20 mM Imidazole supplemented with cOmplete™ Protease Inhibitor Cocktail (Roche) and 25 U/mL Benzonase® Nuclease HC according to the manufacturer's instructions. Cells were lysed by passing through a Microfluidics M110Y Microfluidizer 3 times at 600 kPa followed by centrifugation at 38,000×g at 4° C. for 1 hour. The supernatant was loaded onto a pre-equilibrated HisTrap HP column and eluted in 20 mM Hepes-NaOH (pH 8.0), 50 mM NaCl, 10% glycerol, 2 mM DTT, and 400 mM Imidazole. The eluate was further purified by gel filtration on a Superdex S200 16/60 column and eluted with 20 mM Hepes-NaOH (pH 7.5), 50 mM NaCl, 10% Glycerol, 2 mM DTT. Fractions containing a trimeric complex of CDK7, cyclin H, and MAT1 in a 1:1:1 ratio were pooled and concentrated to 3 mg/mL in a 10 kDa MWCO concentrator, and diluted to a final concentration of 1.6 mg/mL in 11.1 mM Hepes-NaOH (pH 8.0), 27.8 mM NaCl, 1.1 mM DTT and 50% glycerol.
Compounds with potencies approaching the limit of detection of the assay (IC50≤10 nM) were further assessed in a more sensitive fluorescence end-point assay.
as §1
The continuous absorbance assay was converted to an end-point fluorescence assay following the NADH fluorescence signal decrease at the excitation and emission wavelengths of 340 nm and 440 nm, respectively.
Under the same concentrations of substrates and coupling reagents used in the absorbance assay, the fluorescence assay was performed at a reduced concentration of the CDK7/Cyclin H/MAT-1 complex of 5 nM (final concentration) with a reaction time of 24 hours. The percent of inhibition was calculated by the following equation. Percent of inhibition=(Sample−NC)/(PC−NC)*100 where NC is the mean if negative control (reaction without inhibitor), and PC is the mean of positive control (reaction with complete inhibition).
Dosing curves were fitted using the following equation to obtain IC50: Y=Bottom+(Top−Bottom)/(1+10^((log IC50−X)*Hill slope)) where X=log10 of the compound concentration; top and bottom can be defined by PC and NC respectively. Imaging-Based Cellular RNA PolII Ser5 Phosphorylation Assay

[3] = test system: RNA polymerase II Serine 5 phosphorylation (Rpb1 CTD), downstream substrate of CDK7; test: Imaging-based cellular RNA PolII Ser5 phosphorylation assay in A549 cells; type: cell-based, human; conditions: Homo sapiens, A549, 3 h, challenged with compound for 3 hours, read-out: pRNA polII Ser5 (A549) pIC50 (converted)
Procedure, shortened: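 A549 cells seeded 20 h in DMEM with 1% FBS, then exposed to compound for 3 h at 37 °C; fixed, methanol-permeabilized and immunostained for phospho-Rpb1 CTD Ser5, read by automated imaging. Signal normalized to DMSO (high) and 10 μM LDC4297 (low) controls; IC50 from four-parameter fit of % control vs concentration.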

T1 sequence (P50613 whole entry, the tested form may be a part): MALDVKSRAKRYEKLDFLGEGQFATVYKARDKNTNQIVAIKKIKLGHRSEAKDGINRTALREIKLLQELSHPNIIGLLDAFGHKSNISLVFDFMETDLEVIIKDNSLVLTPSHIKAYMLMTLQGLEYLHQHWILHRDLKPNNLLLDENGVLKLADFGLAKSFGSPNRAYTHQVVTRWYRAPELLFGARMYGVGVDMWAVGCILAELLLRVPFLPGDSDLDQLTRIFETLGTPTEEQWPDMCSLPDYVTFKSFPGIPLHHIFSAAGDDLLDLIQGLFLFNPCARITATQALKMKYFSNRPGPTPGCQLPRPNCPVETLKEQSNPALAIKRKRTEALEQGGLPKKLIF
T1 sequence (P51946 whole entry partner, the tested form may be a part): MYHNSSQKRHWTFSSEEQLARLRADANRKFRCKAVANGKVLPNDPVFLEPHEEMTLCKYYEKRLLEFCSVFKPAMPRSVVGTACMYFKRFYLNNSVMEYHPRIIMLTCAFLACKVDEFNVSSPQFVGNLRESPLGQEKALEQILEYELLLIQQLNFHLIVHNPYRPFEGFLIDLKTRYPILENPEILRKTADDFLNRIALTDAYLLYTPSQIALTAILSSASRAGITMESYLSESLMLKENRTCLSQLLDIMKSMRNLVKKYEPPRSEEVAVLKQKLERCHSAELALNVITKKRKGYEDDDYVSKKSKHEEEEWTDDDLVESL
T1 sequence (P51948 whole entry partner, the tested form may be a part): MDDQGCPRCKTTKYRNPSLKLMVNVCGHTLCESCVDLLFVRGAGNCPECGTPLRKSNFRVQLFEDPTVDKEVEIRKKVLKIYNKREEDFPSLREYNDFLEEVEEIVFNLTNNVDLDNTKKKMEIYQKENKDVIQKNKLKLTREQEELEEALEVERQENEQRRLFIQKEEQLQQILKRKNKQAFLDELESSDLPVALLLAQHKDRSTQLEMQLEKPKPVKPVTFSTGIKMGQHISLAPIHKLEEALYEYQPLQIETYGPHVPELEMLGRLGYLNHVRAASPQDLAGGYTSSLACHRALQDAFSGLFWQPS

| IC50 [1] | IC50 [2] | IC50 [3] | CDK7 (20 nM) pIC50 [1] | Structure (SMILES) |
| --- | --- | --- | --- | --- |
| 38 nM | 7.94 nM |  |  | C[C@@H]1Cc2cnc(NCc3ccn(C)n3)nc2CN1C(=O)[C@@H]1CCN(C)C[C@H]1c1ccccc1F (relative stereo) [Compound 130] |
| 61.7 nM | 9.12 nM |  |  | C[C@@H]1Cc2cnc(NCc3ccn(C)n3)nc2CN1C(=O)[C@H]1CCN(C)C[C@@H]1c1ccccc1F (relative stereo) [Compound 131] |
|  | 7.41 nM | 186 nM |  | CO[C@H]1CC[C@H](Nc2cc3c(cn2)C[C@H](C)N(C(=O)[C@H]2CCN(C)C[C@@H]2c2ccccc2)C3)CC1 (single isomer, unassigned) [Compound 172] |
| < 9.77 nM | 2.14 nM |  |  | C[C@@H]1Cc2cnc(N[C@H]3CCN(C)C(=O)C3)nc2CN1C(=O)[C@H]1CCN(C)C[C@@H]1c1ccccc1 (relative stereo) [Compound 5] |
| > 10000 nM |  | > 10000 nM |  | Cc1ccc([C@H]2CN(C)CC[C@@H]2C(=O)N2Cc3nc(NC4CCOCC4)ncc3C[C@H]2C)cn1 (relative stereo) [Compound 107] |
| 468 nM |  | > 10000 nM |  | C[C@@H]1Cc2cnc(NC3CCOCC3)nc2CN1C(=O)[C@H]1CN(C)C[C@@H]1c1ccccc1 (relative stereo) [Compound 169a] |
|  |  | > 10000 nM | <5 | C[C@@H]1Cc2cnc(NC3CCOCC3)nc2CN1C(=O)[C@@H]1CCN(C)C[C@H]1c1ccc(Cl)c(F)c1 [Compound 122a] |
|  |  | 3890 nM | 7.03 | CC(C)n1cc(CNc2ncc3c(n2)CN(C(=O)[C@H]2CCN(C)C[C@@H]2c2ccccc2)[C@H](C)C3)cn1 [Compound 30] |
| 11.7 nM |  | 269 nM |  | Cc1ccc([C@H]2CN(C)CC[C@@H]2C(=O)N2Cc3nc(NC4CCOCC4)ncc3C[C@H]2C)cc1 (relative stereo) [Compound 118] |
| 120 nM |  | 6310 nM |  | C[C@@H]1Cc2cnc(NC3CCOCC3)nc2CN1C(=O)[C@H]1CCN(C)C[C@@H]1C1CCOCC1 (relative stereo) [Compound 115] |
| 2340 nM |  | 6920 nM |  | Cc1cccc([C@@H]2CN(C)CC[C@H]2C(=O)N2Cc3nc(Nc4cnn(C)c4)ncc3[C@@H]3C[C@@H]32)c1 (relative stereo) [Compound 202] |
|  |  | 302 nM | 7.97 | C[C@@H]1Cc2cnc(N[C@H](C)c3ccccn3)nc2CN1C(=O)[C@H]1CCN(C)C[C@@H]1c1ccccc1 [Compound 21] |
|  |  | 162 nM | 7.88 | C[C@@H]1Cc2cnc(NC3CCN(C(=O)C4CC4)CC3)nc2CN1C(=O)[C@H]1CCN(C)C[C@@H]1c1ccccc1 [Compound 33] |
|  |  | 1380 nM | 7.46 | CO[C@H]1CC[C@@H](Nc2ncc3c(n2)CN(C(=O)[C@H]2CCN(C)C[C@@H]2c2ccccc2)[C@H](C)C3)CC1 [Compound 38] |
| 776 nM |  | 2820 nM |  | C[C@@H]1Cc2cnc(NCc3ccn(C)n3)nc2[C@@H](C)N1C(=O)[C@H]1CCN(C)C[C@@H]1c1ccccc1 (relative stereo) [Compound 197] |
| 457 nM |  | 955 nM |  | Cc1cccc([C@@H]2CN(C)CC[C@H]2C(=O)N2Cc3nc(NC4CCOCC4)ncc3C[C@H]2C)c1 (relative stereo) [Compound 137] |
| > 10000 nM |  | > 10000 nM |  | C[C@@H]1c2nc(NC3CCOCC3)ncc2CCN1C(=O)[C@H]1CCN(C)C[C@@H]1c1ccccc1 (relative stereo) [Compound 183] |
|  | 3.24 nM | 126 nM |  | [2H]C([2H])([2H])N1CC[C@H](C(=O)N2Cc3nc(NC4CCOCC4)ncc3C[C@H]2C)[C@@H](c2ccccc2)C1 (single isomer, unassigned) [Compound 156] |
|  |  | 479 nM | 7.89 | C[C@@H]1Cc2cnc(N[C@H]3CC[C@@H](C)CC3)nc2CN1C(=O)[C@H]1CCN(C)C[C@@H]1c1ccccc1 [Compound 14] |
|  |  | 3890 nM | 5.65 | C[C@@H]1CN(C(=O)[C@H]2CCN(C)C[C@@H]2c2ccccc2)[C@@H](C)c2nc(NC3CCOCC3)ncc21 [Compound 180b] |

From patent US12679839B2, “Cyclin-dependent kinase 7 (CDK7) non-covalent inhibitors” (JANSSEN PHARMACEUTICA NV, priority 2020, dated 2026)
